These are literature values, as cited in patent US20230001221A1, “Methods of Treating Cancer with Alternating Electric Fields, Checkpoint Inhibitors, and Combination Chemotherapy” (Novocure GmbH, priority 2021, published 2023).

Data set [1] deals with tumor growth. To be noted: in-vivo, TTFields added to the chemotherapy.
Data set [2] has as its system human and murine pancreatic cancer cell lines. To be noted: in-vitro, TTFields combined with the chemotherapy.

On to `O=c1[nH]cc(F)c(=O)[nH]1` [5-FU, fluorouracil], for which the “inhibition of tumor growth” value in data set [1] is recorded as “significant inhibition of tumor growth”.

As for `Nc1ccn([C@@H]2O[C@H](CO)[C@@H](O)C2(F)F)c(=O)n1` [gemcitabine], the “cytotoxicity when combined with TTFields” value in data set [2] is on record as “enhanced cytotoxicity”. In addition, the “inhibition of tumor growth” value in data set [1] was “significant inhibition of tumor growth”.

On to `CCc1c2c(nc3ccc(OC(=O)N4CCC(N5CCCCC5)CC4)cc13)-c1cc3c(c(=O)n1C2)COC(=O)[C@]3(O)CC` [irinotecan], for which the “cytotoxicity when combined with TTFields” value in data set [2] is recorded as “enhanced cytotoxicity”.
